Assays:
[1] = tested on: iBMECs co-cultured with primary human astrocytes and pericytes; experiment: TNFα perfusion of blood compartment of organ-chip with iBMECs, astrocytes and pericytes; assay type: cell-based; conditions: 10 or 100 ng/ml overnight in blood compartment
Source text: While astrocytes and iBMECs can remain in their respective channels, astrocytes processes protruded through the pores to form direct cell-to-cell contact with the iBMECs, mimicking the astrocyte-end-feet observed in vivo.
In order to quantify the percentage of vascular surface covered with astrocyte protrusions (end-feet like structures), the vascular surface of the are washed in DMEM (without FBS) and stained with the fluorescently labeled wheat germ agglutinin (WGA-647 Invitrogen), a […] able to bind to the vascular glycocalyx (DOI: 10.1002jemt.22602). After 15 minutes at room temperature, chips were rinsed twice with fresh DMEM, fixed in 2% PFA for 20 minutes at room temperature and stained for the astrocyte marker GFAP (Abcam). Following incubation with the anti-mouse secondary antibody (Invitrogen, Alexa Fluor 488) and HOECHS (Abcam) chips were washed in PBS and imaged via confocal microscopy (Zeiss LSM850).
The area underneath the porous membrane was localized using the WGA-647 signal (that stained the whole endothelial surface) and the nuclear fluorescence signal (HOECHST) of endothelial cells. Then, five random areas of each chip were imaged using the GFAP fluorescent (488) signal using a 10× objective (Zeiss). ImageJ software was used to subtract background and then convert the digital signal detected in the GFAP channel into a binary image. Finally, percentage of signal coverage was computed from the binary image as the ratio of bright pixels to the total number of pixels in the image. Image processing and quantification was performed with an automatic macro compiled in ImageJ in order to ensure unbiased signal measurements. Numerical values were collected and statistically analyzed using Graphpad Prism V7.

[2] = as stated for the marketed drug; cited from earlier work

| Molecule | blood-to-brain leakage of dextran after vascular stimulation [1] | astrocyte end-feet-like structures covering the vascular surface ([1]; vs control) | astrocyte morphology ([1]; vs control) | known BBB permeability [2] |
| --- | --- | --- | --- | --- |
| TNFα | increase in blood-to-brain leakage | decrease in end-feet-like structures | change in astrocyte morphology | – |
| CC[C@@H](C(N)=O)N1CCCC1=O [Levetiracetam] | – | – | – | can efficiently penetrate the BBB |
